Reference: ChEMBL document CHEMBL1201862, “PubChem BioAssay data set” (2004)
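Results reflect a 48-hour exposure of cells in 96-well plates to compound at five concentrations. Abbreviation: GI50, concentration required for 50% inhibition of growth.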 Active and inactive are the calls of the source. No stated cut-off is given here; in the data, active = GI50 up to about 1.1 µM and inactive = higher.

Key:
Assay in all cases: NCI-60 cell line screen, 48 h
SK-MEL-2 = tested on: SK-MEL-2
HCT-15 = tested on: HCT-15
SK-MEL-5 = tested on: SK-MEL-5
HL-60 = tested on: HL-60
SK-MEL-28 = tested on: SK-MEL-28
RPMI-8226 = tested on: RPMI-8226
NCI-H460 = tested on: NCI-H460
NCI-H23 = tested on: NCI-H23
K562 = tested on: K562
MCF7 = tested on: MCF7
CCRF-CEM = tested on: CCRF-CEM
T47D = tested on: T47D
OVCAR-4 = tested on: OVCAR-4
SK-OV-3 = tested on: SK-OV-3
OVCAR-8 = tested on: OVCAR-8
DU-145 = tested on: DU-145
HT-29 = tested on: HT-29
COLO 205 = tested on: COLO 205
RXF 393 = tested on: RXF 393
KM12 = tested on: KM12
EKVX = tested on: EKVX
OVCAR-5 = tested on: OVCAR-5
M14 = tested on: M14
SN12C = tested on: SN12C
SNB-19 = tested on: SNB-19
NCI-H226 = tested on: NCI-H226
SF-539 = tested on: SF-539
LOX IMVI = tested on: LOX IMVI
IGROV-1 = tested on: IGROV-1
SF-268 = tested on: SF-268
UO-31 = tested on: UO-31
HOP-62 = tested on: HOP-62
HOP-92 = tested on: HOP-92
BT-549 = tested on: BT-549
786-0 = tested on: 786-0
HCC 2998 = tested on: HCC 2998
Hs-578T = tested on: Hs-578T
UACC-62 = tested on: UACC-62
MDA-MB-435 = tested on: MDA-MB-435
MOLT-4 = tested on: MOLT-4
PC-3 = tested on: PC-3
SR = tested on: SR
ACHN = tested on: ACHN
SF-295 = tested on: SF-295
HCT-116 = tested on: HCT-116
NCI-H522 = tested on: NCI-H522
UACC-257 = tested on: UACC-257
NCI/ADR-RES = tested on: NCI/ADR-RES
MDA-MB-231 = tested on: MDA-MB-231
SNB-75 = tested on: SNB-75
U-251 = tested on: U-251
MDA-N = tested on: MDA-N
OVCAR-3 = tested on: OVCAR-3
A549 = tested on: A549
TK-10 = tested on: TK-10
CAKI-1 = tested on: CAKI-1
SW-620 = tested on: SW-620
Malme-3M = tested on: Malme-3M

**Q.** Which results are given for `O=C1/C(=C/c2ccc(Cl)cc2)Sc2scc(-c3cccc([N+](=O)[O-])c3)[n+]21`?
**A.** GI50 (SK-MEL-2): 12.9 µM (inactive); GI50 (HCT-15): 1.9 µM; GI50 (SK-MEL-5): 2.61 µM (inactive); GI50 (HL-60): 0.308 µM (active); GI50 (SK-MEL-28): 2.81 µM (inactive); GI50 (RPMI-8226): 1.39 µM (inactive); GI50 (NCI-H460): 4.53 µM (inactive); GI50 (NCI-H23): 4.95 µM (inactive); GI50 (K562): 0.459 µM (active); GI50 (MCF7): 3.91 µM (inactive); GI50 (CCRF-CEM): 0.259 µM (active); GI50 (T47D): 3.5 µM (inactive); GI50 (OVCAR-4): 6.97 µM (inactive); GI50 (SK-OV-3): 10.5 µM (inactive); GI50 (OVCAR-8): 7.55 µM (inactive); GI50 (DU-145): 7.11 µM (inactive); GI50 (HT-29): 5.65 µM (inactive); GI50 (COLO 205): 1.86 µM (inactive); GI50 (RXF 393): 2.42 µM (inactive); GI50 (KM12): 2.89 µM (inactive); GI50 (EKVX): 4.18 µM (inactive); GI50 (OVCAR-5): 10.8 µM (inactive); GI50 (M14): 3.57 µM (inactive); GI50 (SN12C): 2.77 µM (inactive); GI50 (SNB-19): 15.6 µM (inactive); GI50 (NCI-H226): 29.8 µM (inactive); GI50 (SF-539): 2.3 µM (inactive); GI50 (LOX IMVI): 3.01 µM (inactive); GI50 (IGROV-1): 2.96 µM (inactive); GI50 (SF-268): 2.95 µM (inactive); GI50 (UO-31): 4.43 µM (inactive); GI50 (HOP-62): 19.5 µM (inactive); GI50 (HOP-92): 2.17 µM (inactive); GI50 (BT-549): 2.2 µM (inactive); GI50 (786-0): 2.16 µM (inactive); GI50 (HCC 2998): 2.8 µM (inactive); GI50 (Hs-578T): 5.48 µM (inactive); GI50 (UACC-62): 3.16 µM (inactive); GI50 (MDA-MB-435): 3.4 µM (inactive); GI50 (MOLT-4): 2.04 µM (inactive); GI50 (PC-3): 7.5 µM (inactive); GI50 (SR): 0.296 µM (active); GI50 (ACHN): 2.49 µM (inactive); GI50 (SF-295): 11.4 µM (inactive); GI50 (HCT-116): 2.06 µM (inactive); GI50 (NCI-H522): 0.44 µM (active); GI50 (UACC-257): 4.61 µM (inactive); GI50 (NCI/ADR-RES): 2.37 µM (inactive); GI50 (MDA-MB-231): 5.22 µM (inactive); GI50 (SNB-75): 0.971 µM (active); GI50 (U-251): 4.55 µM (inactive); GI50 (MDA-N): 3.36 µM (inactive); GI50 (OVCAR-3): 8.09 µM (inactive); GI50 (A549): 13.6 µM (inactive); GI50 (TK-10): 2.13 µM (inactive); GI50 (CAKI-1): 3.01 µM (inactive); GI50 (SW-620): 1.76 µM (inactive)

**Q.** What does the source list for `CC1(C)C[C@H](O)[C@H](O)[C@]23C(=O)O[C@H](O)[C@H]2C(C=O)=CC[C@@H]13`?
**A.** GI50 (HCT-15): > 100 µM; GI50 (SK-MEL-5): > 100 µM (inactive); GI50 (HL-60): > 100 µM (inactive); GI50 (SK-MEL-28): > 100 µM (inactive); GI50 (RPMI-8226): > 100 µM (inactive); GI50 (NCI-H460): > 100 µM (inactive); GI50 (NCI-H23): > 100 µM (inactive); GI50 (K562): > 100 µM (inactive); GI50 (MCF7): > 100 µM (inactive); GI50 (CCRF-CEM): > 100 µM (inactive); GI50 (T47D): 73.1 µM (inactive); GI50 (OVCAR-8): > 100 µM (inactive); GI50 (DU-145): > 100 µM (inactive); GI50 (HT-29): > 100 µM (inactive); GI50 (COLO 205): > 100 µM (inactive); GI50 (RXF 393): > 100 µM (inactive); GI50 (KM12): > 100 µM (inactive); GI50 (EKVX): > 100 µM (inactive); GI50 (Malme-3M): > 100 µM (inactive); GI50 (SN12C): > 100 µM (inactive); GI50 (SNB-19): > 100 µM (inactive); GI50 (NCI-H226): > 100 µM (inactive); GI50 (SF-539): > 100 µM (inactive); GI50 (LOX IMVI): > 100 µM (inactive); GI50 (IGROV-1): > 100 µM (inactive); GI50 (SF-268): > 100 µM (inactive); GI50 (UO-31): > 100 µM (inactive); GI50 (HOP-62): > 100 µM (inactive); GI50 (BT-549): > 100 µM (inactive); GI50 (786-0): > 100 µM (inactive); GI50 (HCC 2998): > 100 µM (inactive); GI50 (Hs-578T): > 100 µM (inactive); GI50 (UACC-62): 58.9 µM (inactive); GI50 (MDA-MB-435): > 100 µM (inactive); GI50 (MOLT-4): > 100 µM (inactive); GI50 (PC-3): > 100 µM (inactive); GI50 (SR): > 100 µM (inactive); GI50 (ACHN): > 100 µM (inactive); GI50 (SF-295): > 100 µM (inactive); GI50 (HCT-116): > 100 µM (inactive); GI50 (NCI-H522): > 100 µM (inactive); GI50 (UACC-257): > 100 µM (inactive); GI50 (NCI/ADR-RES): > 100 µM (inactive); GI50 (MDA-MB-231): > 100 µM (inactive); GI50 (SNB-75): > 100 µM (inactive); GI50 (U-251): 96.2 µM (inactive); GI50 (MDA-N): > 100 µM (inactive); GI50 (OVCAR-3): > 100 µM (inactive); GI50 (A549): > 100 µM (inactive); GI50 (TK-10): > 100 µM (inactive); GI50 (CAKI-1): > 100 µM (inactive); GI50 (SW-620): > 100 µM (inactive)
